What was measured:
CYPIR (Rice Flatsedge) [1] = experiment: Preemergence weed control under flooded paddy conditions; type: in vivo, Cyperus iria; conditions: rated 3-4 weeks after treatment
Procedure, shortened: (§1)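 Herbicidal effect is scored visually on a 0-9 scale against an untreated control, three to four weeks after compounds are pipetted into the flood water (1.5 to 3 cm deep) over seeds planted in silt loam at 0.5 cm depth. Rates: about 0.0313 to 0.500 kg/ha.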

CYPSE (Flatsedge) = experiment: Postemergence weed control under flooded paddy conditions; type: in vivo, Cyperus serotinus; conditions: postemergence weeds, rated 3 to 4 weeks after treatment
Procedure, shortened: (§2)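 Herbicidal effect is judged by eye on a 0–9 scale versus control, 3–4 weeks after dosing. Dosing is into flood water kept 1.5–3 cm over the soil, at about 0.0313–0.500 kg/ha in aqueous/acetone 50/50 v/v, on 3–5 cm weeds and 1.5–2.5-leaf rice seedlings.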

SETVI (Foxtail, Green) = experiment: Postemergence herbicidal evaluation; type: in vivo, Setaria viridis; conditions: postemergence
Procedure, shortened: (§3)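 Herbicidal effect was judged by eye on a 0–9 scale covering stand, vigor, deformity, size and chlorosis, compared with controls, four to five weeks after seedlings about two weeks old were sprayed (40 psi, ~0.0156–0.500 kg/ha).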

ZEAMX (Corn, Field) = experiment: Preemergence herbicidal evaluation; type: in vivo, Zea mays; conditions: rated 4-5 weeks after treatment
Procedure, shortened: (§4)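 Herbicidal effect scored visually, 0-9, at 4 to 5 weeks against a control; compound applied preemergence by aqueous acetone spray to seeded soil at about 0.0156 to 0.500 kg/ha.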

ECHCG (Barnyardgrass) = experiment: Postemergence herbicidal evaluation; type: in vivo, Echinochloa crus-galli; conditions: postemergence
Procedure, shortened: as §3

[2] = test system: TRZAWR (Wheat, Winter, cv Riband); experiment: Preemergence herbicidal evaluation; type: in vivo, Triticum aestivum; conditions: rated 4-5 weeks after treatment
Procedure, shortened: as §4

[3] = test system: IPOHE (Morningglory, Ivyleaf); experiment: Preemergence herbicidal evaluation; type: in vivo, Ipomoea hederacea; conditions: rated 4-5 weeks after treatment
Procedure, shortened: as §4

CYPIR (Rice Flatsedge) [4] = experiment: Postemergence weed control under flooded paddy conditions; type: in vivo, Cyperus iria; conditions: postemergence weeds, rated 3 to 4 weeks after treatment
Procedure, shortened: as §2

ABUTH (Velvetleaf) = experiment: Postemergence herbicidal evaluation; type: in vivo, Abutilon theophrasti; conditions: postemergence
Procedure, shortened: as §3

GALAP (Galium) = experiment: Postemergence herbicidal evaluation; type: in vivo, Galium aparine; conditions: postemergence
Procedure, shortened: as §3

[5] = test system: SAGPY (Arrowhead (Pygmaea)); experiment: Postemergence weed control under flooded paddy conditions; type: in vivo, Sagittaria pygmaea; conditions: postemergence weeds, rated 3 to 4 weeks after treatment
Procedure, shortened: as §2

[6] = test system: ECHORC (Watergrass (Calif.)); experiment: Preemergence weed control under flooded paddy conditions; type: in vivo, Echinochloa oryzoides; conditions: rated 3-4 weeks after treatment
Procedure, shortened: as §1

ORYSAT (Rice, Tebonnet) = experiment: Postemergence herbicidal evaluation; type: in vivo, Oryza sativa, (L.) Tebonnet; conditions: postemergence
Procedure, shortened: as §3

COC(=O)[C@@H](Cc1ccccc1)N1C(=O)CSC1=Nc1cc(-n2c(=O)cc(C(F)(F)F)n(C)c2=O)c(F)cc1Cl [Compound 74, Methyl α-benzyl-2-{{2-chloro-5-[3,6-dihydro-3-methyl-2,6-dioxo-4-(trifluoromethyl)-1(2H)-pyrimidinyl]-4-fluorophenyl}imino}-4-oxo-3-thiazolidineacetate, D-]
7.0: ECHORC herbicidal effect rating ([6]; 0.0313 kg/ha)
4.0: GALAP herbicidal rating (GALAP (Galium); rate 0.0315 kg/ha)
0.0: CYPIR herbicidal effect rating (CYPIR (Rice Flatsedge) [1]; 0.0313 kg/ha) | CYPIR herbicidal effect rating (CYPIR (Rice Flatsedge) [1]; 0.0625 kg/ha) | CYPIR herbicidal effect rating (CYPIR (Rice Flatsedge) [1]; 0.1250 kg/ha) | CYPIR herbicidal effect rating (CYPIR (Rice Flatsedge) [1]; 0.2500 kg/ha) | Herbicidal rating CYPSE (CYPSE (Flatsedge); Rate 0.0313 kg/ha) | Preemergence herbicidal rating ZEAMX (ZEAMX (Corn, Field); rate 0.0156 kg/ha) | Preemergence herbicidal rating ZEAMX (ZEAMX (Corn, Field); rate 0.0313 kg/ha) | Preemergence herbicidal rating ZEAMX (ZEAMX (Corn, Field); rate 0.0625 kg/ha) | Preemergence herbicidal rating TRZAWR ([2]; rate 0.0156 kg/ha) | Preemergence herbicidal rating TRZAWR ([2]; rate 0.0313 kg/ha) | Preemergence herbicidal rating IPOHE ([3]; rate 0.0156 kg/ha) | Preemergence herbicidal rating IPOHE ([3]; rate 0.1250 kg/ha) | Herbicidal rating CYPIR (CYPIR (Rice Flatsedge) [4]; Rate 0.0313 kg/ha) | Herbicidal rating CYPIR (CYPIR (Rice Flatsedge) [4]; Rate 0.0625 kg/ha) | Herbicidal rating CYPIR (CYPIR (Rice Flatsedge) [4]; Rate 0.1250 kg/ha) | Herbicidal rating CYPIR (CYPIR (Rice Flatsedge) [4]; Rate 0.2500 kg/ha)
1.0: SETVI herbicidal rating (SETVI (Foxtail, Green); rate 0.0158 kg/ha) | SETVI herbicidal rating (SETVI (Foxtail, Green); rate 0.0315 kg/ha) | Preemergence herbicidal rating ZEAMX (ZEAMX (Corn, Field); rate 0.1250 kg/ha) | Preemergence herbicidal rating ZEAMX (ZEAMX (Corn, Field); rate 0.2500 kg/ha) | ECHCG herbicidal rating (ECHCG (Barnyardgrass); rate 0.0158 kg/ha) | ECHCG herbicidal rating (ECHCG (Barnyardgrass); rate 0.0315 kg/ha) | ECHCG herbicidal rating (ECHCG (Barnyardgrass); rate 0.0630 kg/ha) | Preemergence herbicidal rating TRZAWR ([2]; rate 0.0625 kg/ha) | Preemergence herbicidal rating TRZAWR ([2]; rate 0.1250 kg/ha) | Preemergence herbicidal rating TRZAWR ([2]; rate 0.2500 kg/ha) | Preemergence herbicidal rating IPOHE ([3]; rate 0.0625 kg/ha) | Preemergence herbicidal rating IPOHE ([3]; rate 0.2500 kg/ha) | GALAP herbicidal rating (GALAP (Galium); rate 0.0158 kg/ha)
3.0: Herbicidal rating SAGPY ([5]; Rate 0.0313 kg/ha) | Herbicidal rating SAGPY ([5]; Rate 0.0625 kg/ha) | Herbicidal rating SAGPY ([5]; Rate 0.1250 kg/ha)
4.5: ORYSAT herbicidal rating (ORYSAT (Rice, Tebonnet); rate 0.0315 kg/ha)
3.5: ORYSAT herbicidal rating (ORYSAT (Rice, Tebonnet); rate 0.0158 kg/ha)
5.5: ORYSAT herbicidal rating (ORYSAT (Rice, Tebonnet); rate 0.0630 kg/ha)
5.0: Herbicidal rating CYPSE (CYPSE (Flatsedge); Rate 0.0625 kg/ha) | Herbicidal rating CYPSE (CYPSE (Flatsedge); Rate 0.1250 kg/ha)
9.0: Herbicidal rating CYPSE (CYPSE (Flatsedge); Rate 0.2500 kg/ha) | ABUTH herbicidal rating (ABUTH (Velvetleaf); rate 0.0158 kg/ha) | ABUTH herbicidal rating (ABUTH (Velvetleaf); rate 0.0315 kg/ha) | ABUTH herbicidal rating (ABUTH (Velvetleaf); rate 0.0630 kg/ha) | GALAP herbicidal rating (GALAP (Galium); rate 0.0630 kg/ha) | Herbicidal rating SAGPY ([5]; Rate 0.2500 kg/ha) | ECHORC herbicidal effect rating ([6]; 0.0625 kg/ha) | ECHORC herbicidal effect rating ([6]; 0.1250 kg/ha) | ECHORC herbicidal effect rating ([6]; 0.2500 kg/ha)
2.0: SETVI herbicidal rating (SETVI (Foxtail, Green); rate 0.0630 kg/ha)

C[C@@H](C(=O)OC(C)(C)C)N1C(=O)CSC1=Nc1cc(-n2c(=O)cc(C(F)(F)F)n(C)c2=O)c(F)cc1Cl [Compound 75, tert-Butyl 2-{{2-chloro-5-[3,6-dihydro-3-methyl-2,6-dioxo-4-(trifluoromethyl)-1(2H)-pyrimidinyl]-4-fluorophenyl}imino}-α-methyl-4-oxo-3-thiazolidineacetate, L-]
0.0: CYPIR herbicidal effect rating (CYPIR (Rice Flatsedge) [1]; 0.0313 kg/ha) | CYPIR herbicidal effect rating (CYPIR (Rice Flatsedge) [1]; 0.0625 kg/ha) | Preemergence herbicidal rating ZEAMX (ZEAMX (Corn, Field); rate 0.0156 kg/ha) | Preemergence herbicidal rating ZEAMX (ZEAMX (Corn, Field); rate 0.0313 kg/ha) | Preemergence herbicidal rating ZEAMX (ZEAMX (Corn, Field); rate 0.0625 kg/ha) | Preemergence herbicidal rating TRZAWR ([2]; rate 0.0156 kg/ha) | Preemergence herbicidal rating TRZAWR ([2]; rate 0.0313 kg/ha) | Preemergence herbicidal rating TRZAWR ([2]; rate 0.0625 kg/ha) | Preemergence herbicidal rating IPOHE ([3]; rate 0.0156 kg/ha) | Preemergence herbicidal rating IPOHE ([3]; rate 0.0313 kg/ha) | Preemergence herbicidal rating IPOHE ([3]; rate 0.0625 kg/ha) | Preemergence herbicidal rating IPOHE ([3]; rate 0.1250 kg/ha) | Herbicidal rating CYPIR (CYPIR (Rice Flatsedge) [4]; Rate 0.0313 kg/ha) | Herbicidal rating CYPIR (CYPIR (Rice Flatsedge) [4]; Rate 0.0625 kg/ha) | Herbicidal rating SAGPY ([5]; Rate 0.0313 kg/ha) | Herbicidal rating SAGPY ([5]; Rate 0.0625 kg/ha) | Herbicidal rating SAGPY ([5]; Rate 0.1250 kg/ha)
3.0: Herbicidal rating CYPSE (CYPSE (Flatsedge); Rate 0.0625 kg/ha) | Herbicidal rating CYPSE (CYPSE (Flatsedge); Rate 0.1250 kg/ha) | Herbicidal rating CYPSE (CYPSE (Flatsedge); Rate 0.2500 kg/ha) | SETVI herbicidal rating (SETVI (Foxtail, Green); rate 0.0630 kg/ha) | Preemergence herbicidal rating ZEAMX (ZEAMX (Corn, Field); rate 0.2500 kg/ha) | Herbicidal rating SAGPY ([5]; Rate 0.2500 kg/ha)
2.0: Herbicidal rating CYPSE (CYPSE (Flatsedge); Rate 0.0313 kg/ha) | Preemergence herbicidal rating TRZAWR ([2]; rate 0.2500 kg/ha) | Preemergence herbicidal rating IPOHE ([3]; rate 0.2500 kg/ha) | GALAP herbicidal rating (GALAP (Galium); rate 0.0315 kg/ha) | ORYSAT herbicidal rating (ORYSAT (Rice, Tebonnet); rate 0.0158 kg/ha)
2.5: ORYSAT herbicidal rating (ORYSAT (Rice, Tebonnet); rate 0.0315 kg/ha) | ORYSAT herbicidal rating (ORYSAT (Rice, Tebonnet); rate 0.0630 kg/ha)
6.0: CYPIR herbicidal effect rating (CYPIR (Rice Flatsedge) [1]; 0.1250 kg/ha) | CYPIR herbicidal effect rating (CYPIR (Rice Flatsedge) [1]; 0.2500 kg/ha) | Herbicidal rating CYPIR (CYPIR (Rice Flatsedge) [4]; Rate 0.1250 kg/ha) | Herbicidal rating CYPIR (CYPIR (Rice Flatsedge) [4]; Rate 0.2500 kg/ha) | ECHORC herbicidal effect rating ([6]; 0.0313 kg/ha) | ECHORC herbicidal effect rating ([6]; 0.0625 kg/ha)
9.0: ABUTH herbicidal rating (ABUTH (Velvetleaf); rate 0.0158 kg/ha) | ABUTH herbicidal rating (ABUTH (Velvetleaf); rate 0.0315 kg/ha) | ABUTH herbicidal rating (ABUTH (Velvetleaf); rate 0.0630 kg/ha) | ECHORC herbicidal effect rating ([6]; 0.1250 kg/ha) | ECHORC herbicidal effect rating ([6]; 0.2500 kg/ha)
1.0: SETVI herbicidal rating (SETVI (Foxtail, Green); rate 0.0158 kg/ha) | Preemergence herbicidal rating ZEAMX (ZEAMX (Corn, Field); rate 0.1250 kg/ha) | ECHCG herbicidal rating (ECHCG (Barnyardgrass); rate 0.0158 kg/ha) | ECHCG herbicidal rating (ECHCG (Barnyardgrass); rate 0.0315 kg/ha) | ECHCG herbicidal rating (ECHCG (Barnyardgrass); rate 0.0630 kg/ha) | Preemergence herbicidal rating TRZAWR ([2]; rate 0.1250 kg/ha) | GALAP herbicidal rating (GALAP (Galium); rate 0.0158 kg/ha)
5.0: SETVI herbicidal rating (SETVI (Foxtail, Green); rate 0.0315 kg/ha) | GALAP herbicidal rating (GALAP (Galium); rate 0.0630 kg/ha)
